Results: patent US20040133038A1, “Method of purifying aromatic polycarboxylic acid” (priority 2001, published 2004)
Read-outs that look alike come from different tables or passages of the source.

Test: solubility in water
Type: physicochemical

## O=C(O)c1ccc2cc(C(=O)O)ccc2c1 [2,6-naphthalenedicarboxylic acid]
  amount dissolved in 600 g of water, calculated from the solubility: 36 g

## O=C(O)c1ccc(-c2ccc(C(=O)O)cc2)cc1 [biphenyldicarboxylic acid]
  solubility in water relative to that of terephthalic acid: 1/10

## O=C(O)c1ccc2cc(C(=O)O)ccc2c1 [naphthalenedicarboxylic acid]
Fraction of the solubility of terephthalic acid
  solubility in water relative to that of terephthalic acid: 1/10

## O=C(O)c1ccc(C(=O)O)cc1 [terephthalic acid]
  solubility in water: 6.5 g/100 g
600 g of water, 230° C.
  amount dissolved in 600 g of water, calculated from the solubility: 39 g
